These results are taken from US20160122305A1, “Topical Compositions and Methods of Use Thereof” (Avon Products, Inc., priority 2014, published 2016).

In one test the target is β2 adrenergic receptor (Homo sapiens, UniProt P07550). Briefly: SelectScreen cell-based GPCR profiling, β2 agonist assay. The settings on record: 5 hours incubation, fluorescence read. Here is the method: (§1) The Compounds of Formulas (III)-(V) were subjected to an in vitro screening against α1A, α2A, and β2 adrenergic receptors using SelectScreen® Cell-based GPCR Profiling Service from Life Technologies. In each of the three agonist assays (α1A, α2A, and β2), cells were thawed and resuspended in Assay Media (DMEM, 10% dialyzed FBS, 25 mM HEPES pH 7.3, 0.1 mM NEAA, 100 U/mL/100 μg/mL Pen/Strep) to a concentration of 312,500 cells/mL. 32 μL of cell suspension (10,000 cells) were added to each well of a 384-well TC-Treated assay plate. Cells in Assay Media were incubated for 16-24 hours in the plate at 37° C./5% CO2 in a humidified incubator. 4 μL of a 10× serial dilution of a control agonist (phenylephrine for α1A; UK 14304 for α2A; isoproterenol for β2) or a Compound III-V were added to appropriate wells of the plate. 4 μL of Assay Media was added to all wells to bring the final assay volume to 40 μL. The plate was incubated for 5 hours at 37° C./5% CO2 in a humidified incubator. 8 μL of 1 μM Substrate+Loading Solution was added to each well and the plate was incubated for 2 hours at room temperature. The plate was read on a fluorescence plate reader.
Sequence of β2 adrenergic receptor (P07550 whole entry): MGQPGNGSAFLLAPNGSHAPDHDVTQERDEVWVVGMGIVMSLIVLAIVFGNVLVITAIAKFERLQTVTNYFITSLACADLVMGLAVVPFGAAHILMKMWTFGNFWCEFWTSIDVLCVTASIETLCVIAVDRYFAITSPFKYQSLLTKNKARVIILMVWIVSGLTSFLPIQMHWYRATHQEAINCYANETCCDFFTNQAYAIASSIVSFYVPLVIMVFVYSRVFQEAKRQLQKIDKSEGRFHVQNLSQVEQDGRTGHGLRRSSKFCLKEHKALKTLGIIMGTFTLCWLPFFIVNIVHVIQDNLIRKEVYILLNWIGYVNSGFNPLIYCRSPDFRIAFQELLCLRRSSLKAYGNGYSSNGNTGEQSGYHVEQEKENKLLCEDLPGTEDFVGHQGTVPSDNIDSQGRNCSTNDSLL

The next test concerns the target T1, α2A adrenergic receptor (Homo sapiens, UniProt P08913).
T1 sequence (P08913 1-465): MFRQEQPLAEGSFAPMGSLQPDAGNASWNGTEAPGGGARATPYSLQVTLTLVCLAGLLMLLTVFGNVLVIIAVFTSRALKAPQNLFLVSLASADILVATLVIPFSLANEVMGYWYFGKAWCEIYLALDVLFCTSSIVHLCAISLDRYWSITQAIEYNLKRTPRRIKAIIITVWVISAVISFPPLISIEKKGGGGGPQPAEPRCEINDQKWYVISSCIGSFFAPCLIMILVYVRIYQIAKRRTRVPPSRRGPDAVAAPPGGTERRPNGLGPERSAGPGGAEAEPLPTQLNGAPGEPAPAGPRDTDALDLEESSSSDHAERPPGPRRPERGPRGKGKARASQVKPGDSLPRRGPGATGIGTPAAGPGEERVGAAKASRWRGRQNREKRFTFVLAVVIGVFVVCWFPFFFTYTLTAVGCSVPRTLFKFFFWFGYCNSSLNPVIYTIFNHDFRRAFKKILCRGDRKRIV
Put plainly: SelectScreen cell-based GPCR profiling, α2A agonist assay. The following applies: 5 hours incubation, fluorescence read. How it is done:
as §1

The target in the next test is T2, α1A adrenergic receptor (Homo sapiens, UniProt P35348).
T2 sequence (P35348 1-466): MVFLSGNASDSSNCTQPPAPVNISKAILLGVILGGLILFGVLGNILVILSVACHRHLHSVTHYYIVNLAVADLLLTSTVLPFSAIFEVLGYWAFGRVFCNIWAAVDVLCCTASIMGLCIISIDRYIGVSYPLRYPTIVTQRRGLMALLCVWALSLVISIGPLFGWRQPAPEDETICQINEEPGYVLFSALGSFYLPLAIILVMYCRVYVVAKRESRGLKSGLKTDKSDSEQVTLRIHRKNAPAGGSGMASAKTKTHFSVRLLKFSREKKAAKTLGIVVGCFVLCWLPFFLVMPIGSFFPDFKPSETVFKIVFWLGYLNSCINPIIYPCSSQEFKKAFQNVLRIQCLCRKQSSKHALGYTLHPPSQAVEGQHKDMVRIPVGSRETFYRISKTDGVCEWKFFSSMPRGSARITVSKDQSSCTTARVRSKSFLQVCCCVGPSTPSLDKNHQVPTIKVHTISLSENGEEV
Put plainly: SelectScreen cell-based GPCR profiling, α1A agonist assay. The settings on record: for selectivity of agonism (α1A and/or α2A EC50 less than 1,000 nM and insignificant activity at β2): classification in words from Table 1 EC50 values, insignificant β2 activity = EC50 greater than about 500 nM. Here is the method:
32 μL of cell suspension (10,000 cells) were added to each well of a 384-well TC-Treated assay plate. Cells in Assay Media were incubated for 16-24 hours in the plate at 37° C./5% CO2 in a humidified incubator. […] 4 μL of Assay Media was added to all wells to bring the final assay volume to 40 μL. The plate was incubated for 5 hours at 37° C./5% CO2 in a humidified incubator. 8 μL of 1 μM Substrate+Loading Solution was added to each well and the plate was incubated for 2 hours at room temperature. The plate was read on a fluorescence plate reader.

The mark [1] stands for this setting: agonist assay, 5 hours incubation, fluorescence read, read-out: α1A Activity, EC50.

Read-outs that look alike come from different tables or passages of the source.

As to `CC(Oc1ccccc1C1CCCC1)C1=NCCN1` (centres unmarked) [Compound III], the EC50 was above 6.3 µM at β2 adrenergic receptor, 18.7 nM on α2A adrenergic receptor and below 0.119 nM on α1A adrenergic receptor.

As to `CC(Oc1ccccc1-c1cccnc1)C1=NCCN1` (centres unmarked) [IV], the concentration giving a half-maximal response (EC50) at β2 adrenergic receptor is above 25 µM; on α2A adrenergic receptor, above 25000 nM; on α1A adrenergic receptor (setting [1]), 13 nM. Also, the “selectivity of agonism (α1A and/or α2A EC50 less than 1,000 nM and insignificant activity at β2)” value on α1A adrenergic receptor was “selective α1A receptor agonist”.

Consider `CC(Oc1ccccc1/C=N/O)C1=NCCN1` (centres unmarked) [V], for which the half-maximal effective concentration (EC50) at β2 adrenergic receptor was above 63 µM; at α2A adrenergic receptor, 277 nM; on α1A adrenergic receptor (setting [1]) it was 32.6 nM. For the same molecule, the “selectivity of agonism (α1A and/or α2A EC50 less than 1,000 nM and insignificant activity at β2)” value at α1A adrenergic receptor was “selective α1A and α2A receptor agonist”.
